Assay results reported in patent US7973047B2, “Beta-Secretase modulators and methods of use” (Amgen Inc., priority 2010, dated 2011).
Read-outs that look alike come from different tables or passages of the source.

System: Aβ40 in conditioned medium of cells stably expressing Amyloid Precursor Protein (APP)
Assay: BACE cell-based assay: Aβ40 in conditioned medium by sandwich ELISA
Settings: unit inferred, read-out: Cell Assay
Summary of the method: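 APP-stable cells grown 24 h in DMEM/10% FBS, then exposed to compounds for 24 h in a 10-point dose series starting at 100 or 10 μM, 0.1% DMSO final. Medium Aβ40 measured by pAb40/biotinylated 6E10 sandwich ELISA with Europium time-resolved fluorescence; IC50 from percent inhibition.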

[1] = cell based assay data of Table 4

Row | IC50 (cell based assay data, Table 4) [µM] | IC50 [1] [µM] | SMILES
1 | 0.0525 | – | C=CCC[C@H](NC(C)=O)[C@H](O)CN[C@H]1C[C@]2(C[C@H](C)C2)Oc2ncc(CC(C)(C)C)cc21 [compound 717, N-((1S)-1-((1R)-2-(((1s,3R,4′S)-6′-(2,2-dimethylpropyl)-3-methyl-3′,4′-dihydrospiro[cyclobutane-1,2′-pyrano[2,3-b]pyridin]-4′-yl)amino)-1-hydroxyethyl)-4-penten-1-yl)acetamide]
2 | ≥ 10 | – | CC(=O)N[C@@H](Cc1ccc(Cl)cc1)[C@H](O)CN[C@H]1CC2(CCC2)Oc2ncc(C(O)C(C)C(F)(F)F)cc21 (stereo partly shown) [compound 864]
3 | 0.0585 | – | CC(=O)N[C@@H](Cc1cc(F)cc(F)c1)[C@H](O)CN[C@H]1CC2(CCC2)Oc2ccc(N[C@@H]3CCOC3)cc21 [compound 790]
4 | 0.0128 | – | CC(=O)N[C@@H](Cc1cccc(C(N)=O)c1)[C@H](O)CN[C@H]1CC2(CCC2)Oc2ncc(CC(C)C)cc21 [compound 848]
5 | 1.02 | – | COCC(=O)N[C@@H](Cc1cccc(C#N)c1)[C@H](O)CN[C@H]1CC2(CCC2)Oc2ccc(C(=O)OC)cc21 [compound 730]
6 | 0.00356 | – | CC(=O)N[C@@H](Cc1cc(F)cc(F)c1)[C@H](O)CN[C@H]1CC(C)(C)Oc2cnc(CC(C)(C)C)cc21 [compound 800]
7 | 0.148 | – | CC(=O)N[C@@H](Cc1ccc(F)cc1)[C@H](O)CN[C@H]1CC2(CCC2)Oc2ncc(C(F)C(C)C(F)(F)F)cc21 (stereo partly shown) [compound 859]
8 | 0.0356 | – | CC(=O)N[C@@H](Cc1c(F)ccc(F)c1F)[C@H](O)CN[C@H]1CC2(CCC2)Oc2ncc(CC(C)(C)C)cc21 [compound 870]
9 | 0.0689 | – | CC(=O)N[C@@H](Cc1cc(F)cc(Cl)c1)[C@H](O)CN[C@H]1CC(C)(C)Oc2c1cc(CC(C)(C)C)nc2N(C)C [compound 757]
10 | – | 0.00509 | CC(=O)N[C@@H](Cc1ccccc1F)[C@H](O)CN[C@H]1CC2(CCC2)Oc2ncc(CC(C)(C)C)cc21 [compound 703]
11 | – | 0.00215 | CC(=O)N[C@@H](Cc1ccc(C)c(F)c1)[C@H](O)CN[C@H]1CC2(CCC2)Oc2ncc(CC(C)(C)C)cc21 [compound 576]
12 | – | 0.00232 | CC(=O)N[C@@H](Cc1cncs1)[C@H](O)CN[C@H]1CC2(CCC2)Oc2ncc(CC(C)(C)C)cc21 [compound 638, N-((1S,2R)-3-(((4′S)-6′-(2,2-dimethylpropyl)-3′,4′-dihydrospiro[cyclobutane-1,2′-pyrano[2,3-b]pyridin]-4′-yl)amino)-2-hydroxy-1-(1,3-thiazol-5-ylmethyl)propyl)acetamide]
13 | – | 0.0234 | CC(=O)N[C@@H](Cc1ccccc1Cl)[C@H](O)CN[C@H]1CC2(CCC2)Oc2ncc(CC(C)(C)C)cc21 [compound 708]
14 | 1.8 | – | CC(=O)N[C@@H](Cc1ccc(F)cc1)[C@H](O)CN[C@H]1CC2(CCC2)Oc2ncc(Cc3ccccc3)cc21 [compound 818]
15 | – | 0.00642 | CC(=O)N[C@@H](Cc1cc(F)cc(F)c1)[C@H](O)CN[C@H]1CC2(CCC2)Oc2nc(F)c(CC(C)(C)C)cc21 [compound 659]
16 | – | 0.00682 | CC(=O)N[C@@H](Cc1nc(Cl)cs1)[C@H](O)CN[C@H]1CC2(CCC2)Oc2ncc(CC(C)(C)C)cc21 [compound 641, N-((1S,2R)-1-((4-chloro-1,3-thiazol-2-yl)methyl)-3-(((4′S)-6′-(2,2-dimethylpropyl)-3′,4′-dihydrospiro[cyclobutane-1,2′-pyrano[2,3-b]pyridin]-4′-yl)amino)-2-hydroxypropyl)acetamide]
17 | 0.0439 | – | COC(=O)c1ccc2c(c1)[C@@H](NC[C@@H](O)[C@H](Cc1cccc(C#N)c1)NC(=O)CN(C)C)CC1(CCC1)O2 [compound 728]

Row | IC50 (cell based assay data, Table 4) [µM] | IC50 [1] [µM] | SMILES
18 | – | 0.849 | CC(=O)N[C@@H](Cc1cccc(C#N)c1)[C@H](O)CN[C@H]1CC2(CCC2)Oc2ncc(C(F)(F)F)cc21 [compound 699]
19 | 0.0277 | – | CC(=O)N[C@@H](Cc1ccc2c(c1)OCO2)[C@H](O)CN[C@H]1CC2(CCC2)Oc2ncc(CC(C)(C)F)cc21 [compound 840]
20 | – | 0.189 | CC(=O)N[C@@H](Cc1ccc(C(F)(F)F)cc1)[C@H](O)CN[C@H]1CC2(CCC2)Oc2ncc(CC(C)(C)C)cc21 [compound 648]
21 | – | 0.00784 | CC(=O)N[C@@H](Cc1ccccc1)[C@H](O)CN[C@H]1CC2(CCC2)Oc2ncc(CC(C)(C)C(F)F)cc21 [compound 652]
22 | – | 0.0129 | CC(=O)N[C@@H](Cc1cccc(F)c1)[C@H](O)CN[C@H]1CC2(CCC2)Oc2c1cc(CC(C)(C)C)nc2NCCNC(=O)OC(C)(C)C [compound 603]
23 | 0.00649 | – | CC(=O)N[C@@H](Cc1cc(F)cc(Br)c1)[C@H](O)CN[C@H]1CC2(CCC2)Oc2ncc(CC(C)(C)C)cc21 [compound 763]
24 | – | 0.116 | CC(=O)N[C@@H](Cc1cccc(C#N)c1)[C@H](O)CN[C@H]1CC(C)(C)Oc2ccc(Br)cc21 [compound 526]
25 | – | 2.16 | CC(=O)N[C@@H](Cc1cc(F)cc(F)c1)[C@H](O)CN[C@H]1CC2(CCC2)Oc2ccc(-c3cn(C)nn3)cc21 [compound 520]
26 | 2.52 | – | CCc1ccc2c(c1)[C@@H](NC[C@@H](O)[C@H](COC)NC(C)=O)CC1(CCC1)O2 [compound 731]
27 | 0.00114 | – | CC(=O)N[C@@H](Cc1cc(F)cc(F)c1)[C@H](O)CN[C@H]1C[C@]2(C[C@H](C)C2)Oc2ncc(CC(C)(C)C)cc21 [compound 765, N-((1S,2R)-1-((3,5-difluorophenyl)methyl)-3-(((1s,3R,4′S)-6′-(2,2-dimethylpropyl)-3-methyl-3′,4′-dihydrospiro[cyclobutane-1,2′-pyrano[2,3-b]pyridin]-4′-yl)amino)-2-hydroxypropyl)acetamide]
28 | 1.05 | – | CC(=O)N[C@@H](Cc1cc(F)cc(F)c1)[C@H](O)CN[C@H]1CC2(CCC2)Oc2ncc(-c3nccs3)cc21 [compound 748]
29 | – | 0.137 | COCC(C)(C)Cc1cnc2c(c1)[C@@H](NC[C@@H](O)[C@H](Cc1ccc(F)cc1)NC(C)=O)CC1(CCC1)O2 [compound 581]
30 | – | 0.0627 | CC(=O)N[C@@H](Cc1ccc(F)cc1)[C@H](O)CN[C@H]1C[C@]2(C[C@@H](C)C2)Oc2ncc(CC(C)C)cc21 [compound 616, N-((1S,2R)-1-((4-fluorophenyl)methyl)-2-hydroxy-3-(((1r,3S,4′S)-3-methyl-6′-(2-methylpropyl)-3′,4′-dihydrospiro[cyclobutane-1,2′-pyrano[2,3-b]pyridin]-4′-yl)amino)propyl)acetamide]
31 | – | 0.152 | CC(=O)N[C@@H](Cc1ccnc(C(F)(F)F)n1)[C@H](O)CN[C@H]1CC2(CCC2)Oc2ncc(CC(C)(C)C)cc21 [compound 647, N-((1S,2R)-3-(((4′S)-6′-(2,2-dimethylpropyl)-3′,4′-dihydrospiro[cyclobutane-1,2′-pyrano[2,3-b]pyridin]-4′-yl)amino)-2-hydroxy-1-((2-(trifluoromethyl)-4-pyrimidinyl)methyl)propyl)acetamide]
32 | – | 0.00989 | CC(=O)N[C@@H](Cc1ccnc(C)c1)[C@H](O)CN[C@H]1CC2(CCC2)Oc2ncc(CC(C)(C)C)cc21 [compound 640, N-((1S,2R)-3-(((4′S)-6′-(2,2-dimethylpropyl)-3′,4′-dihydrospiro[cyclobutane-1,2′-pyrano[2,3-b]pyridin]-4′-yl)amino)-2-hydroxy-1-((2-methyl-4-pyridinyl)methyl)propyl)acetamide]
33 | 0.215 | – | CC(=O)N[C@@H](Cc1cc(F)cc(F)c1)[C@H](O)CN[C@H]1CC2(CCC2)Oc2ncc(-n3cccn3)cc21 [compound 746]
34 | 0.0331 | – | CC(=O)N[C@@H](Cc1cc(F)cc(F)c1)[C@H](O)CN[C@H]1CC2(CCC2)Oc2ncc(Br)cc21 [compound 745]
